Tests used:
Assay in all cases: relative viability (nuclei count vs DMSO), 5 days (fraction); higher = more cells survive
HCC-44 = tested on: HCC-44
Outline: (§1)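 After 5 days of treatment, lung cancer cells in 1536-well plates were fixed and stained in a single step (final 0.05% Triton X-100, 1% formaldehyde, 1 ug/ml Hoechst) and their nuclei counted on 4× images. Treatment had been applied by pin tool the day after seeding as one drug alone or as a fixed anchor-drug dose with five library-drug doses (not always all listed) in √10 steps. Relative viability is the nuclei count of treated wells divided by that of vehicle wells, and values are medians of duplicate plates.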

ABC-1 = tested on: ABC-1
Outline: as §1

BEN = tested on: BEN
Outline: as §1

NCI-H2023 = tested on: NCI-H2023
Outline: as §1

NCI-H522 = tested on: NCI-H522
Outline: as §1

NCI-H1915 = tested on: NCI-H1915
Outline: as §1

LU99A = tested on: LU99A
Outline: as §1

NCI-H1650 = tested on: NCI-H1650
Outline: as §1

NCI-H1944 = tested on: NCI-H1944
Outline: as §1

NCI-H1395 = tested on: NCI-H1395
Outline: as §1

HCC-827 = tested on: HCC-827
Outline: as §1

HCC-366 = tested on: HCC-366
Outline: as §1

HCC-15 = tested on: HCC-15
Outline: as §1

LCLC-97TM1 = tested on: LCLC-97TM1
Outline: as §1

LC-2-ad = tested on: LC-2-ad
Outline: as §1

LOU-NH91 = tested on: LOU-NH91
Outline: as §1

HOP-62 = tested on: HOP-62
Outline: as §1

NCI-H661 = tested on: NCI-H661
Outline: as §1

COR-L 105 = tested on: COR-L 105
Outline: as §1

CAL-12T = tested on: CAL-12T
Outline: as §1

HARA = tested on: HARA
Outline: as §1

NCI-H2009 = tested on: NCI-H2009
Outline: as §1

NCI-H596 = tested on: NCI-H596
Outline: as §1

ChaGo-K-1 = tested on: ChaGo-K-1
Outline: as §1

NCI-H650 = tested on: NCI-H650
Outline: as §1

Nc1cccc2c1CN(C1CCC(=O)NC1=O)C2=O (stereo not drawn) [Lenalidomide] + COc1cccc2cc(-c3nc([C@H]4CC[C@H](C(=O)O)CC4)n4ncnc(N)c34)[nH]c12 [OSI-027] (partner 0.5 µM)
relative viability (HCC-44; first compound 0.253 µM): 0.636
relative viability (HCC-44; first compound 2.53 µM): 0.535
relative viability (HCC-44; first compound 8 µM): 0.512
relative viability (ABC-1; first compound 0.253 µM): 0.453
relative viability (ABC-1; first compound 0.8 µM): 0.489
relative viability (ABC-1; first compound 2.53 µM): 0.533
relative viability (ABC-1; first compound 8 µM): 0.481
relative viability (BEN; first compound 0.253 µM): 0.331
relative viability (BEN; first compound 0.8 µM): 0.295
relative viability (BEN; first compound 2.53 µM): 0.316
relative viability (BEN; first compound 8 µM): 0.3
relative viability (NCI-H2023; first compound 0.253 µM): 0.418
relative viability (NCI-H2023; first compound 0.8 µM): 0.337
relative viability (NCI-H2023; first compound 2.53 µM): 0.545
relative viability (NCI-H2023; first compound 8 µM): 0.451
relative viability (NCI-H522; first compound 0.253 µM): 0.754
relative viability (NCI-H522; first compound 2.53 µM): 0.696
relative viability (NCI-H522; first compound 8 µM): 0.596
relative viability (NCI-H1915; first compound 0.253 µM): 0.61
relative viability (NCI-H1915; first compound 0.8 µM): 0.653
relative viability (NCI-H1915; first compound 2.53 µM): 0.646
relative viability (NCI-H1915; first compound 8 µM): 0.615
relative viability (LU99A; first compound 0.253 µM): 0.31
relative viability (LU99A; first compound 0.8 µM): 0.324
relative viability (LU99A; first compound 2.53 µM): 0.292
relative viability (LU99A; first compound 8 µM): 0.285
relative viability (NCI-H1650; first compound 0.8 µM): 0.546
relative viability (NCI-H1650; first compound 2.53 µM): 0.722
relative viability (NCI-H1650; first compound 8 µM): 0.656
relative viability (NCI-H1944; first compound 0.253 µM): 0.412
relative viability (NCI-H1944; first compound 0.8 µM): 0.372
relative viability (NCI-H1944; first compound 2.53 µM): 0.491
relative viability (NCI-H1944; first compound 8 µM): 0.36
relative viability (NCI-H1395; first compound 0.253 µM): 0.74
relative viability (NCI-H1395; first compound 0.8 µM): 0.501
relative viability (NCI-H1395; first compound 2.53 µM): 0.633
relative viability (NCI-H1395; first compound 8 µM): 0.601
relative viability (HCC-827; first compound 0.253 µM): 0.807
relative viability (HCC-827; first compound 0.8 µM): 0.74
relative viability (HCC-827; first compound 2.53 µM): 0.849
relative viability (HCC-827; first compound 8 µM): 0.831
relative viability (HCC-366; first compound 0.253 µM): 1.02
relative viability (HCC-366; first compound 0.8 µM): 0.709
relative viability (HCC-366; first compound 2.53 µM): 1.01
relative viability (HCC-366; first compound 8 µM): 0.747
relative viability (HCC-15; first compound 0.253 µM): 0.705
relative viability (HCC-15; first compound 0.8 µM): 0.578
relative viability (HCC-15; first compound 2.53 µM): 0.826
relative viability (HCC-15; first compound 8 µM): 0.689
relative viability (LCLC-97TM1; first compound 0.253 µM): 0.544
relative viability (LCLC-97TM1; first compound 0.8 µM): 0.454
relative viability (LCLC-97TM1; first compound 2.53 µM): 0.661
relative viability (LCLC-97TM1; first compound 8 µM): 0.563
relative viability (LC-2-ad; first compound 0.253 µM): 0.856
relative viability (LC-2-ad; first compound 2.53 µM): 0.912
relative viability (LC-2-ad; first compound 8 µM): 0.887
relative viability (LOU-NH91; first compound 0.253 µM): 0.769
relative viability (LOU-NH91; first compound 0.8 µM): 0.699
relative viability (LOU-NH91; first compound 2.53 µM): 0.703
relative viability (LOU-NH91; first compound 8 µM): 0.664
relative viability (HOP-62; first compound 0.253 µM): 0.685
relative viability (HOP-62; first compound 0.8 µM): 0.802
relative viability (HOP-62; first compound 2.53 µM): 0.998
relative viability (HOP-62; first compound 8 µM): 0.789
relative viability (NCI-H661; first compound 0.253 µM): 0.722
relative viability (NCI-H661; first compound 0.8 µM): 0.689
relative viability (NCI-H661; first compound 2.53 µM): 0.849
relative viability (NCI-H661; first compound 8 µM): 0.729
relative viability (COR-L 105; first compound 0.253 µM): 0.715
relative viability (COR-L 105; first compound 0.8 µM): 0.632
relative viability (COR-L 105; first compound 2.53 µM): 0.697
relative viability (COR-L 105; first compound 8 µM): 0.821
relative viability (CAL-12T; first compound 0.253 µM): 0.599
relative viability (CAL-12T; first compound 0.8 µM): 0.555
relative viability (CAL-12T; first compound 2.53 µM): 1.01
relative viability (CAL-12T; first compound 8 µM): 0.619
relative viability (HARA; first compound 0.253 µM): 0.612
relative viability (HARA; first compound 2.53 µM): 0.564
relative viability (HARA; first compound 8 µM): 0.534
relative viability (NCI-H2009; first compound 0.253 µM): 0.627
relative viability (NCI-H2009; first compound 0.8 µM): 0.64
relative viability (NCI-H2009; first compound 2.53 µM): 0.779
relative viability (NCI-H2009; first compound 8 µM): 0.759
relative viability (NCI-H596; first compound 0.253 µM): 0.784
relative viability (NCI-H596; first compound 2.53 µM): 0.764
relative viability (NCI-H596; first compound 8 µM): 0.532
relative viability (ChaGo-K-1; first compound 0.253 µM): 0.586
relative viability (ChaGo-K-1; first compound 0.8 µM): 0.441
relative viability (ChaGo-K-1; first compound 2.53 µM): 0.656
relative viability (ChaGo-K-1; first compound 8 µM): 0.548
relative viability (NCI-H650; first compound 0.253 µM): 0.528
relative viability (NCI-H650; first compound 2.53 µM): 0.577
relative viability (NCI-H650; first compound 8 µM): 0.472
